The values that follow come from patent US20080119530A1, “Method for treatment and prevention of ultraviolet light induced skin pathologies” (priority 2006, published 2008).

Structures are written as SMILES.

For one test, the system named is Tg.AC mice. In words: UV-induced skin tumorigenesis in v-rasHa transgenic Tg.AC mice. In kind it is in vivo, mouse. From the text:
Animals. Homozygous v-rasHa transgenic mice on an FVB/N background were used in in vivo experiments. To obtain keratinocytes with genetic ablation of Erbb2, loxP sites were inserted flanking exon 2 of Erbb2 such that splicing from exon1 to downstream introns upon Cre recombinase expression creates a frameshift mutation. Mice were maintained in our animal facility and provided with Purina lab chow (Nestle Purina PetCare, St. Louis, Mo.) and water ad libitum. The dorsal skin was clipped one day before treatment using electric clippers (Wahl, Sterling, II) and shaved on the day of treatment with a Remington Microscreen shaver (Madison, N.C.). […] The Ultraviolet-B TL 40W/12 RS bulbs (Philips, Somerset, N.J.) used emitted approximately 30% UVA, 70% UVB and <1% UVC, with a total output of 470 μW/cm^2, as measured with radiometric photodetector probes (Newport, Irvine, Calif.). For tumor experiments, homozygous Tg.AC mice were treated and exposed twice with an interval of 7 d. Tumor number was counted and tumor volume measured weekly using calipers. Skin-fold thickness was measured using calipers (Mitutoyo, Aurora, Ill.) to lightly pinch the dorsal skin. All animal procedures were performed in accordance with American Association of Laboratory Animal Care guidelines and approved by Creighton University's Institutional Animal Care and Use Committee.
Statistical methods. The tumor experiment was analyzed using two-way ANOVA. Statistical significance in other experiments was assessed using two-way ANOVA or Student's t-test with Bonferroni post-test. All experiments, excluding the tumor experiment, were replicated several times and consistent results obtained.
The skin tumorigenesis experiment was performed in v-ras^Ha transgenic Tg.AC mice because of their enhanced sensitivity to UV-induced skin tumorigenesis (13; 52). […] While the vehicle-treated mice continued to accrue tumors throughout the duration of the experiment, the AG825-treated group reached a plateau in tumor number by 7 weeks after the first UV exposure. By the end of the experiment, mean tumor volume was also 70% less in the AG825-treated group when compared to the vehicle control. Representative tumors from each treatment were examined histologically and all were benign squamous papillomas with similar differentiation status.
Upon activation, Erbb2 heterodimerizes with either EGFR or Erbb3 to transduce signals. Support for the hypothesis that Erbb2 increases skin carcinogenesis comes from our investigations of the functions of its dimerization partner EGFR. A tumor study was conducted to assess the role of EGFR in the clonal expansion of transformed cells to form benign tumors in the skin of v-ras^Ha transgenic Tg.AC mice. Inhibition of EGFR with the tyrphostin inhibitor AG1478 decreased the number of tumors that developed by about 50% in UV-exposed v-rasHa transgenic mice. Mean tumor volume was 80% less upon inhibition of EGFR-mediated signaling when compared to, UV-exposed and vehicle-treated controls.

For a further test, the system named is skin. The experiment in a line: TUNEL analysis of apoptotic basal cells in UV-exposed skin. Further details: species or system mouse. To be noted: 24 h after UV, in vivo. The protocol: Microscopy. Hematoxylin and eosin staining was performed on paraffin-embedded sections following standard protocols. Following antigen retrieval, paraffin-embedded sections were incubated with antibodies to keratin 1, keratin 6, filaggrin (all from Covance, Princeton, N.J.), or […] (R&D Systems, Minneapolis, Minn.), Alexa Fluor 488-conjugated secondary antibody (Molecular Probes), and 4′,6-diamidino-2-phenylindole (DAPI; Vector Laboratories, Burlingame, Calif.). Apoptotic cells were identified using terminal deoxynucleotidyl transferase-mediated dUTP nick end labeling (TUNEL; Promega, Madison, Wis.).
Therefore, the effect of inhibition of Erbb2 on apoptotic cell death was examined in vivo by TUNEL. The percentage of TUNEL-positive basal cells peaked at 18% in vehicle-treated skin at 24 h after UV.
It has been discovered that Erbb2 modulates the expression of genes important in both proliferation and apoptosis following UV exposure in vivo (Example 9). Accordingly, the influence of Erbb2 on both apoptosis and cell proliferation was assessed in order to determine the mechanisms of Erbb2's effect on hyperplasia in the skin after UV irradiation. Erbb2 suppresses UV-induced apoptosis in vitro, although the effect was slight (32). […]

Turning to `COc1cc(/C=C(\C#N)C(N)=O)cc(CSc2nc3ccccc3s2)c1O` [AG825], the “tumors per mouse by the end of the experiment” value with Tg.AC mice (4 mg AG825 topically 2 h prior to each of two 10 kJ/m^2 UV exposures 7 d apart) came to 15. In the test with Tg.AC mice (12 weeks later), the tumor multiplicity decreased entry was “more than half” and the tumor volume decreased entry is reported as “more than half”. Besides, the “time by which tumor number reached a plateau” value in the test on Tg.AC mice (after the first UV exposure) is listed as not above 7 weeks. Besides, in the test on Tg.AC mice (by the end of the experiment), the “mean tumor volume less than vehicle control” value was determined as 70%. Moreover, the “development of tumors blocked” value in the test with Tg.AC mice (inhibition of Erbb2 prior to UV irradiation, vs vehicle) is reported as “more than half”. For the same compound, the “UV-induced carcinogenesis (FIG. 6)” value in the test on Tg.AC mice (topical treatment 2 h prior to UV irradiation) is on record as “suppress”. Further, the “apoptotic cell death (TUNEL-positive basal cells)” value in the test on skin is given as “did not increase”.
